Reference: patent US20190021380A1 (priority 2014, published 2019)
Where two headings read alike, the source gives them in different places.

Tests used:
[1] = target: cat T1R1/T1R3 receptor (Felis catus, UniProt E3UMS2); assay: cell-based; settings: for Max resp % of IMP: hek293 cells
Source text: HEK293 cells that stably express T1R3 and inducibly express T1R1 were exposed to nucleotide derivatives alone or in combination with one or more amino acids and/or one or more nucleotides to activate the umami receptor. Activation of the T1R1/T1R3 receptor was detected by a change in intracellular calcium levels using a calcium sensitive fluorescent dye and/or a luminescent reporter system. Cells that express T1R3 but not T1R1 were used as a control. A FLIPR® Tetra or a FlexStation® 3 was used for data capture.

[2] = target: T1R1/T1R3 receptor (Felis catus, UniProt E3UMS2); assay: cell-based; format: cell-based; settings: for Max resp % of Ala +IMP (0.2 mM): relative to Ala; for Max resp ΔF/F +Alanine (20 mM) / Thres (mM) +Alanine (20 mM) / Max resp % of IMP +Alanine (20 mM): in the presence of 20 mM alanine; for Max resp % of IMP +Alanine (20 mM): relative to IMP; for activation of T1R1/T1R3 by the compound alone: in words
Source text: HEK293 cells that stably express T1R3 and inducibly express T1R1 were exposed to transmembrane compounds alone or in combination with one or more amino acids and/or one or more nucleotides to activate the umami receptor. Activation of the T1R1/T1R3 receptor was detected by a change in intracellular calcium levels using a calcium sensitive fluorescent dye. Cells that express T1R3 but not T1R1 were used as a control. A FLIPR® Tetra or a FlexStation® 3 was used for data capture.
In each experiment, serial dilutions of up to 10 mM of the transmembrane compound were added to the T1R1/T1R3-expressing cells.

[3] = EC50 (mM), + Alanine (20 mM), Table 15
[4] = EC50 (mM) +IMP (0.2 mM), in the presence of 0.2 mM IMP
[5] = compound alone in buffer, read-out: EC50 (mM) +buffer (alone)

| Compound | Max resp ΔF/F +IMP (0.2 mM) ([2]; in the presence of 0.2 mM IMP) | Thres (mM) +IMP (0.2 mM) ([2]; in the presence of 0.2 mM IMP) [mM] | Max resp % of Ala +IMP (0.2 mM) ([2]; in the presence of 0.2 mM IMP) [%] | Max resp ΔF/F +Alanine (20 mM) [2] | Thres (mM) +Alanine (20 mM) [2] [mM] | Max resp % of IMP +Alanine (20 mM) [2] [%] | further results |
| --- | --- | --- | --- | --- | --- | --- | --- |
| NC(=O)c1ncn(C2OC(COP(=O)(O)O)C(O)C2O)c1N (stereo not drawn) | – | – | – | – | – | – | EC50 ([1]; EC50-with Ala (mM)): > 1 mM |
| Nc1ncnc2c1ncn2C1OC(COP(O)(O)=S)C(O)C1O (stereo not drawn) | – | – | – | – | – | – | Activity [1]: active; Thres [1]: 0.003 mM; Max resp % of IMP [1]: 128.4 % of IMP |
| NC1NC(=O)c2ncn([C@H]3O[C@@H](COP(=O)(O)O)[C@H](O)[C@@H]3O)c2N1 (stereo partly drawn) | – | – | – | – | – | – | EC50 ([1]; in the presence of 20 mM alanine, read-out: EC50-with Ala): 0.03 mM |
| O=C(Nc1ncnc2c1ncn2[C@@H]1O[C@H](COP(=O)(O)O)[C@@H](O)[C@H]1O)c1ccccc1 | – | – | – | – | – | – | Thres [1]: 0.3 mM; EC50 [1, 3]: > 1 mM; Max resp % of IMP [1]: 105.6 % of IMP |
| O=P(O)(O)OCC1OC(n2cnc3c(Nc4ccccc4)ncnc32)C(O)C1O (stereo not drawn) | – | – | – | – | – | – | EC50 ([1]; EC50-with Ala (mM), in the presence of 20 mM alanine): > 1 mM |
| O=c1ccn(C2OC(COP(=O)(O)N3CCOCC3)C(O)C2O)c(=O)[nH]1 (stereo not drawn) | – | – | – | – | – | – | EC50 [1, 3]: > 3 mM |
| O=C(Nc1ccccc1Br)N[C@@H]1c2ccccc2C[C@@H]1O (stereo in doubt) [1-(2-bromophenyl)-3-((1R,2S)-2-hydroxy-2,3-dihydro-1H-inden-1-yl)urea] | 0.378 | 3 | 44.9 | 0.3 | 3 | 33.0 | – |
| O=C(CN1C(=O)C(=O)N(Cc2ccccc2)C1=O)c1ccccc1 [1-benzyl-3-(2-oxo-2-phenylethyl)imidazolidine-2,4,5-trione] | 1.140 | 0.08 | 135.7 | 1.3 | 1 | 127.6 | – |
| CSc1ccc(-c2nnn(Cc3ccccn3)n2)cc1 [2-((5-(4-(methylthio)phenyl)-2H-tetrazol-2-yl)methyl)pyridine] | 0.678 | 0.1575 | 80.7 | – | – | – | – |
| CCC(CC)NC(=O)c1ccc(OC)c(OC)c1 [3,4-dimethoxy-N-(pentan-3-yl)benzamide] | 0.9975 | 0.5 | 81.0 | 0.545 | 0.3 | 43.9 | – |
| CCC(CC)NC(=O)c1ccc(C)c(C)c1 [3,4-dimethyl-N-(pentan-3-yl)benzamide] | 1.5475 | 0.525 | 125.7 | 1.2150 | 3 | 97.8 | – |
| COc1ccc(C(=O)NC(C)c2ccccc2)cc1C (stereo not drawn) [4-methoxy-3-methyl-N-(1-phenylethyl)benzamide] | 1.1775 | 0.35 | 95.6 | 0.51 | 3 | 41.0 | – |
| CCCC(C)NC(=O)c1ccc(OC)c(C)c1 (stereo not drawn) [4-methoxy-3-methyl-N-(pentan-2-yl)benzamide] | 1.5875 | 0.025 | 128.9 | 1.5650 | 0.050 | 126.0 | – |
| CCC(CC)NC(=O)c1ccc(Br)o1 [5-bromo-N-(pentan-3-yl)furan-2-carboxamide] | 1.8425 | 0.3 | 149.6 | 1.575 | 1 | 126.8 | – |
| CCCC(C)NC(=O)/C=C/c1ccc(OC)c(OC)c1 (stereo not drawn) [(E)-3-(3,4-dimethoxyphenyl)-N-(pentan-2-yl)acrylamide] | 1.07 | 0.55 | 86.9 | 0.4375 | 1 | 35.2 | EC50 [2]: > 10 mM; EC50 [2, 4]: 2.2 mM; EC50 [2, 5]: > 10 mM |
| COc1ccc(/C=C/C(=O)NC2CCCCC2C)cc1 (stereo not drawn) [(E)-3-(4-methoxyphenyl)-N-(2-methylcyclohexyl)acrylamide] | 1.7725 | 0.3 | 144.0 | 0.785 | 3 | 63.2 | – |
| CCC(CC)NC(=O)/C=C/c1ccc(OC)cc1 [(E)-3-(4-methoxyphenyl)-N-(pentan-3-yl)acrylamide] | 1.443 | 0.0375 | 171.7 | 0.7 | 0.148 | 64.1 | – |
| COC(=O)C(NC(=O)/C=C/c1cccs1)C(C)C (stereo not drawn) [(E)-methyl 3-methyl-2-(3-(thiophen-2-yl)acrylamido)butanoate] | 0.7375 | 1 | 59.9 | 0.1175 | 10 | 9.5 | – |
| O=C(NCCc1ccccc1)C(=O)NCc1cccnc1 [N1-phenethyl-N2-(pyridin-3-ylmethyl)oxalamide] | 0.7625 | 0.1 | 61.9 | 0.3750 | 1 | 30.2 | – |
| CC1CCCC(NC(=O)c2ccc3c(c2)OCO3)C1C (stereo not drawn) [N-(2,3-dimethylcyclohexyl)benzo[d][1,3]dioxole-5-carboxamide] | 1.175 | 0.275 | 95.4 | 0.225 | 3 | 18.1 | – |
| COc1cc(C(=O)NC(C(N)=O)c2ccccc2)cc(Cl)c1OC (stereo not drawn) [N-(2-amino-2-oxo-1-phenylethyl)-3-chloro-4,5-dimethoxybenzamide] | 0.415 | 0.17 | 49.4 | – | – | – | activation of T1R1/T1R3 by the compound alone [2]: failed to activate T1R1/T1R3 alone |
| CCCC(CCC)C(=O)Nc1ccc2c(c1)OCO2 [N-(benzo[d][1,3]dioxol-5-yl)-2-propylpentanamide] | 0.908 | 0.0675 | 108.0 | – | – | – | activation of T1R1/T1R3 by the compound alone [2]: agonist of T1R1/T1R3 alone |
| CCC(CC)NC(=O)c1ccc2c(c1)OCCO2 [N-(pentan-3-yl)-2,3-dihydrobenzo[b][1,4]dioxine-6-carboxamide] | 0.8725 | 0.075 | 70.9 | 0.3125 | 0.3 | 25.2 | – |
| CCOC(=O)C(NC(=O)c1ccc2c(c1)OCO2)C(C)C (stereo not drawn) [ethyl 2-(benzo[d][1,3]dioxole-5-carboxamido)-3-methylbutanoate] | 0.65 | 1 | 52.8 | 0.3175 | 10 | 25.6 | EC50 [2]: > 10 mM; EC50 [2, 4]: > 3 mM; EC50 [2, 5]: > 10 mM |
